{"source": "patent US12679878B2", "about": "“CRF2 receptor agonists and their use in therapy” (SANOFI, priority 2020, dated 2026)", "biological_target": "T1, human CRF2α receptor (Homo sapiens, UniProt Q13324)", "T1 construct": "expressed in transfected cells; host or cells: TeloHEAC", "T1 sequence (Q13324 1-411)": "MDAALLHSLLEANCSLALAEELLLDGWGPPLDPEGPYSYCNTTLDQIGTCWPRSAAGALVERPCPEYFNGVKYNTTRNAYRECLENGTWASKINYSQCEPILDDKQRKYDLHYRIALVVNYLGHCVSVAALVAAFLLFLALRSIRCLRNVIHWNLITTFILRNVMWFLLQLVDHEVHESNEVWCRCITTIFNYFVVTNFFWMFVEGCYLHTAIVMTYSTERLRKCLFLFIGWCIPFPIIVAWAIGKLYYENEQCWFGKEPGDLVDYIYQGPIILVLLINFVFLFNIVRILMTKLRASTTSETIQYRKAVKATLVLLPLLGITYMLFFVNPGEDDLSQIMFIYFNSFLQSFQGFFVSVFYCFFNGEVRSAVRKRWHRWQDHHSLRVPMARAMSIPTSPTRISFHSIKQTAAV", "experiment": "cAMP agonism at human CRF2 α receptor in TeloHEAC cells (Example 7)", "assay_type": "cell-based", "in_short": "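Steps: thaw and wash cells; suspend in 1×HBSS, 20 mM HEPES, 0 or 0.1% HSA, 2 mM IBMX; add compound, 30 min RT; lyse with HTRF reagents, 1 h; read 665/620 nm. EC50 calculated, E% versus 1000 nM UCN2.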", "key": {"[1]": {"settings": "cAMP HTRF, TeloHEAC cells stably expressing human CRF2 α, 0% HSA, read-out: EC50 [nM], 0% HSA"}, "[2]": {"settings": "cAMP HTRF, TeloHEAC cells stably expressing human CRF2 α, 0.1% HSA, read-out: EC50 [nM], 0.1% HSA"}}, "note": "Read-outs that look alike come from different tables or passages of the source. Starred links: 1 amine or outer side, 2 acyl side, 3 side chain; linkers in the order of their positions; H or OH if unused. Non-standard residues stand in square brackets, D forms with d. Residues, ends and D or L forms follow the SMILES beside them. Groups on a side chain read outwards from the residue. *: point of attachment. C18 diacid = O=C(O)CCCCCCCCCCCCCCCCC(=O)*; γGlu = O=C(O)[C@H](CCC(=O)[*:2])N[*:1]; AEEA = NCCOCCOCC(=O)O; Aib = CC(C)(N)C(=O)O"}
{"smiles": "CC[C@H](C)[C@H](N)C(=O)N[C@H](C(=O)N[C@@H](CC(C)C)C(=O)N[C@@H](CO)C(=O)N[C@@H](CC(C)C)C(=O)N[C@@H](CC(=O)O)C(=O)N[C@@H](C(=O)N1CCC[C@H]1C(=O)N[C@H](C(=O)N[C@@H](CCCCN)C(=O)N[C@@H](CC(C)C)C(=O)N[C@@H](CCCCNC(=O)COCCOCCNC(=O)COCCOCCNC(=O)CC[C@H](NC(=O)CCCCCCCCCCCCCCCCC(=O)O)C(=O)O)C(=O)N[C@@H](CCC(N)=O)C(=O)N[C@H](C(=O)N[C@@H](CC(C)C)C(=O)N[C@@H](CC(C)C)C(=O)N[C@@H](CCCCN)C(=O)N[C@@H](CCC(N)=O)C(=O)N[C@@H](CCC(=O)O)C(=O)N[C@@H](CCCNC(=N)N)C(=O)N[C@@H](CCC(N)=O)C(=O)N[C@@H](CCCCN)C(=O)NC(C)(C)C(=O)N[C@@H](CCC(N)=O)C(=O)N[C@@H](CCCNC(=N)N)C(=O)N[C@@H](CCC(=O)O)C(=O)N[C@@H](CCC(N)=O)C(=O)N[C@@H](C)C(=O)N[C@@H](CCC(=O)O)C(=O)N[C@@H](CCCCN)C(=O)N[C@@H](CC(N)=O)C(=O)N[C@@H](CCCCN)C(=O)N[C@@H](CCC(N)=O)C(=O)N[C@H](C(=O)N[C@@H](CC(C)C)C(=O)N[C@@H](CCC(=O)O)C(=O)N[C@@H](CCCNC(=N)N)C(=O)N[C@H](C(N)=O)C(C)C)[C@@H](C)CC)[C@@H](C)CC)[C@@H](C)CC)C(C)C)C(C)C", "note": "[compound 133] (H-IVLSLD[dV]PIKLK([AEEA-AEEA-γGlu-C18 diacid])QILLKQERQK[Aib]QREQAEKNKQILERV-NH2; N-terminus assumed)", "values": [{"measurement": "EC50", "setting": "[1]", "result": 0.09, "unit": "nM"}, {"measurement": "EC50", "setting": "[2]", "result": 3.19, "unit": "nM"}]}
{"smiles": "CC[C@H](C)[C@H](NC(=O)[C@H](CCC(N)=O)NC(=O)[C@H](CCCCN)NC(=O)[C@H](CC(N)=O)NC(=O)[C@@H](NC(=O)[C@H](CCCCN)NC(=O)[C@H](C)NC(=O)[C@H](CCCCN)NC(=O)[C@H](CCC(N)=O)NC(=O)[C@H](CCCNC(=N)N)NC(=O)[C@H](CCC(N)=O)NC(=O)[C@H](CCCCN)NC(=O)[C@H](CCCCN)NC(=O)[C@H](CCC(N)=O)NC(=O)[C@H](CCCCN)NC(=O)[C@H](CCC(=O)O)NC(=O)[C@H](CCC(N)=O)NC(=O)[C@H](CCCCN)NC(=O)[C@H](CC(C)C)NC(=O)[C@H](CC(C)C)NC(=O)[C@@H](NC(=O)[C@H](CCC(N)=O)NC(=O)[C@H](CCCCNC(=O)COCCOCCNC(=O)COCCOCCNC(=O)CC[C@H](NC(=O)CCCCCCCCCCCCCCCCC(=O)O)C(=O)O)NC(=O)[C@@H](NC(=O)[C@H](CCCCN)NC(=O)[C@@H](NC(=O)[C@@H]1CCCN1C(=O)[C@@H](NC(=O)[C@H](CC(=O)O)NC(=O)[C@H](CC(C)C)NC(=O)[C@H](CO)NC(=O)[C@H](CC(C)C)NC(=O)[C@@H](NC(=O)[C@@H](N)Cc1ccccc1)[C@@H](C)O)C(C)C)[C@@H](C)O)[C@@H](C)CC)[C@@H](C)CC)[C@@H](C)O)C(=O)N[C@@H](CC(C)C)C(=O)N[C@@H](CCC(=O)O)C(=O)N[C@@H](CCCNC(=N)N)C(=O)N[C@H](C(N)=O)C(C)C", "note": "[compound 143] (H-FTLSLDVPTKIK([AEEA-AEEA-γGlu-C18 diacid])QILLKQEKQKKQRQKAKTNKQILERV-NH2)", "values": [{"measurement": "EC50", "setting": "EC50 [nM], 0% HSA", "result": 1.44, "unit": "nM"}, {"measurement": "EC50", "setting": "EC50 [nM], 0.1% HSA", "result": 93.8, "unit": "nM"}]}
{"smiles": "CC[C@H](C)[C@H](NC(=O)[C@H](CCC(N)=O)NC(=O)[C@H](CCCCN)NC(=O)[C@H](CC(N)=O)NC(=O)[C@@H](NC(=O)[C@H](CCCCN)NC(=O)[C@H](C)NC(=O)[C@H](CCCCN)NC(=O)[C@H](CCC(N)=O)NC(=O)[C@H](CCCNC(=N)N)NC(=O)[C@H](CCC(N)=O)NC(=O)[C@H](CCCCN)NC(=O)[C@H](CCCCN)NC(=O)[C@H](CCC(N)=O)NC(=O)[C@H](CCCNC(=N)N)NC(=O)[C@H](CCC(=O)O)NC(=O)[C@H](CCC(N)=O)NC(=O)[C@H](CCCCN)NC(=O)[C@H](CC(C)C)NC(=O)[C@H](CC(C)C)NC(=O)[C@@H](NC(=O)[C@H](CCC(N)=O)NC(=O)[C@H](CCCCNC(=O)COCCOCCNC(=O)COCCOCCNC(=O)CC[C@H](NC(=O)CCCCCCCCCCCCCCCCC(=O)O)C(=O)O)NC(=O)[C@@H](NC(=O)[C@H](CCCCN)NC(=O)[C@@H](NC(=O)[C@@H]1CCCN1C(=O)[C@@H](NC(=O)[C@H](CC(=O)O)NC(=O)[C@H](CC(C)C)NC(=O)[C@H](CO)NC(=O)[C@H](CC(C)C)NC(=O)[C@@H](NC(=O)[C@@H](N)Cc1ccccc1)[C@@H](C)O)C(C)C)[C@@H](C)O)[C@@H](C)CC)[C@@H](C)CC)[C@@H](C)O)C(=O)N[C@@H](CC(C)C)C(=O)N[C@@H](CCC(=O)O)C(=O)N[C@@H](CCCNC(=N)N)C(=O)N[C@H](C(N)=O)C(C)C", "note": "[compound 144] (H-FTLSLDVPTKIK([AEEA-AEEA-γGlu-C18 diacid])QILLKQERQKKQRQKAKTNKQILERV-NH2)", "values": [{"measurement": "EC50", "setting": "[1]", "result": 1.36, "unit": "nM"}, {"measurement": "EC50", "setting": "[2]", "result": 76.3, "unit": "nM"}]}
{"smiles": "CC[C@H](C)[C@H](NC(=O)[C@H](CCC(N)=O)NC(=O)[C@H](CCCCN)NC(=O)[C@H](CC(N)=O)NC(=O)[C@H](CCCCN)NC(=O)[C@H](CCCCN)NC(=O)[C@H](C)NC(=O)[C@H](CCCCN)NC(=O)[C@H](CCC(N)=O)NC(=O)[C@H](CCCNC(=N)N)NC(=O)[C@H](CCC(N)=O)NC(=O)[C@H](CCCCN)NC(=O)[C@H](CCCCN)NC(=O)[C@H](CCC(N)=O)NC(=O)[C@H](CCCNC(=N)N)NC(=O)[C@H](CCC(=O)O)NC(=O)[C@H](CCC(N)=O)NC(=O)[C@H](CCCCN)NC(=O)[C@H](CC(C)C)NC(=O)[C@H](CC(C)C)NC(=O)[C@@H](NC(=O)[C@H](CCC(N)=O)NC(=O)[C@H](CCCCNC(=O)COCCOCCNC(=O)COCCOCCNC(=O)CC[C@H](NC(=O)CCCCCCCCCCCCCCCCC(=O)O)C(=O)O)NC(=O)[C@@H](NC(=O)[C@H](CCCCN)NC(=O)[C@@H](NC(=O)[C@@H]1CCCN1C(=O)[C@@H](NC(=O)[C@H](CC(=O)O)NC(=O)[C@H](CC(C)C)NC(=O)[C@H](CO)NC(=O)[C@H](CC(C)C)NC(=O)[C@@H](NC(=O)[C@@H](N)Cc1ccccc1)[C@@H](C)O)C(C)C)[C@@H](C)O)[C@@H](C)CC)[C@@H](C)CC)C(=O)N[C@@H](CC(C)C)C(=O)N[C@@H](CCC(=O)O)C(=O)N[C@@H](CCCNC(=N)N)C(=O)N[C@H](C(N)=O)C(C)C", "note": "[compound 145] (H-FTLSLDVPTKIK([AEEA-AEEA-γGlu-C18 diacid])QILLKQERQKKQRQKAKKNKQILERV-NH2)", "values": [{"measurement": "EC50", "setting": "[1]", "result": 1.46, "unit": "nM"}, {"measurement": "EC50", "setting": "[2]", "result": 96.9, "unit": "nM"}]}
{"smiles": "CC[C@H](C)[C@H](NC(C)=O)C(=O)N[C@H](C(=O)N[C@@H](CC(C)C)C(=O)N[C@@H](CO)C(=O)N[C@@H](CC(C)C)C(=O)N[C@@H](CC(=O)O)C(=O)N[C@H](C(=O)N1CCC[C@H]1C(=O)N[C@H](C(=O)NCC(=O)N[C@@H](CC(C)C)C(=O)N[C@@H](CCCCNC(=O)COCCOCCNC(=O)COCCOCCNC(=O)CC[C@H](NC(=O)CCCCCCCCCCCCCCCCC(=O)O)C(=O)O)C(=O)N[C@@H](CCC(N)=O)C(=O)N[C@H](C(=O)N[C@@H](CC(C)C)C(=O)N[C@@H](CC(C)C)C(=O)N[C@@H](CCC(=O)O)C(=O)N[C@@H](CCC(N)=O)C(=O)N[C@@H](CCC(=O)O)C(=O)N[C@@H](CCCCN)C(=O)N[C@@H](CCC(N)=O)C(=O)N[C@@H](CCC(=O)O)C(=O)N[C@@H](CCCCN)C(=O)N[C@@H](CCC(=O)O)C(=O)N[C@@H](CCCCN)C(=O)N[C@@H](CCC(N)=O)C(=O)N[C@@H](CCC(N)=O)C(=O)N[C@@H](C)C(=O)N[C@@H](CCC(=O)O)C(=O)N[C@H](C(=O)N[C@@H](CC(N)=O)C(=O)N[C@@H](C)C(=O)N[C@@H](CCC(N)=O)C(=O)N[C@H](C(=O)N[C@@H](CC(C)C)C(=O)N[C@@H](C)C(=O)N[C@@H](CCC(N)=O)C(=O)N[C@H](C(N)=O)C(C)C)[C@@H](C)CC)[C@@H](C)O)[C@@H](C)CC)[C@@H](C)CC)C(C)C)C(C)C", "note": "[compound 153] (Ac-IVLSLDVPIGLK([AEEA-AEEA-γGlu-C18 diacid])QILLEQEKQEKEKQQAETNAQILAQV-NH2)", "values": [{"measurement": "EC50", "setting": "[1]", "result": 33.7, "unit": "nM"}]}
